Data taken from ChEMBL document CHEMBL4265942, “Four new antitumor metabolites isolated from a mutant 3-f-31 strain derived from Penicillium purpurogenum G59” (Eur J Med Chem, 2018).

Key:
[1] = test system: K562; assay: Antiproliferative activity against human K562 cells assessed as inhibition of cell growth after 72 hrs by MTT assay; format: functional, cell-based; details: K562, 72 h
[2] = test system: A549; assay: Antiproliferative activity against human A549 cells assessed as inhibition of cell growth after 72 hrs by sulforhodamine B assay; format: functional, cell-based; details: A549, 72 h
[3] = test system: HCT-116; assay: Antitumor activity against human HCT116 cells xenografted in BALB/c nu/nu mouse assessed as tumor growth inhibition at 5 mg/kg administered peritoneally once daily for 14 days measured 24 hrs post last dose relative to control; format: functional; details: read-out: TGI
[4] = test system: HCT-116; assay: Down regulation of phosphorylated STAT3 expression in human HCT116 cells after 48 hrs by Western blot analysis; format: functional, cell-based
[5] = test system: BXPC-3; assay: Antiproliferative activity against human BxPC3 cells assessed as inhibition of cell growth after 72 hrs by sulforhodamine B assay; format: functional, cell-based; details: BXPC-3, 72 h
[6] = test system: PC-3; assay: Antiproliferative activity against human PC3 cells assessed as inhibition of cell growth after 72 hrs by sulforhodamine B assay; format: functional, cell-based; details: PC-3, 72 h
[7] = test system: HT-29; assay: Antiproliferative activity against human HT-29 cells assessed as inhibition of cell growth after 72 hrs by sulforhodamine B assay; format: functional, cell-based; details: HT-29, 72 h
[8] = test system: HeLa; assay: Antiproliferative activity against human HeLa cells assessed as inhibition of cell growth after 72 hrs by sulforhodamine B assay; format: functional, cell-based
[9] = test system: HCT-116; assay: Down regulation of AKT expression in human HCT116 cells after 48 hrs by Western blot analysis; format: functional, cell-based
[10] = test system: SW480; assay: Antiproliferative activity against human SW480 cells assessed as inhibition of cell growth after 72 hrs by sulforhodamine B assay; format: functional, cell-based; details: SW480, 72 h
[11] = test system: HCT-116; assay: Down regulation of STAT3 expression in human HCT116 cells after 48 hrs by Western blot analysis; format: functional, cell-based
[12] = test system: HCT-116; assay: Down regulation of ERK1/2 expression in human HCT116 cells after 48 hrs by Western blot analysis; format: functional, cell-based
[13] = test system: Mus musculus; assay: Toxicity in BALB/c nu/nu mouse xenografted with human HCT116 cells assessed as spleen index at 10 mg/kg administered peritoneally once daily for 14 days measured 24 hrs post last dose (reference value: 0.41 +/- 0.08%); format: organism-based; details: in vivo, ip
[14] = test system: HCT-116; assay: Antiproliferative activity against human HCT116 cells assessed as inhibition of cell growth after 72 hrs by sulforhodamine B assay; format: functional, cell-based; details: HCT-116, 72 h
[15] = test system: Mus musculus; assay: Toxicity in BALB/c nu/nu mouse xenografted with human HCT116 cells assessed as spleen index at 20 mg/kg administered peritoneally once daily for 14 days measured 24 hrs post last dose (reference value: 0.41 +/- 0.08%); format: organism-based; details: in vivo, ip
[16] = test system: LS180; assay: Antiproliferative activity against human LS180 cells assessed as inhibition of cell growth after 72 hrs by sulforhodamine B assay; format: functional, cell-based; details: LS180, 72 h
[17] = test system: MCF7; assay: Antiproliferative activity against human MCF7 cells assessed as inhibition of cell growth after 72 hrs by sulforhodamine B assay; format: functional, cell-based; details: MCF7, 72 h
[18] = test system: HL-60; assay: Antiproliferative activity against human HL60 cells assessed as inhibition of cell growth after 72 hrs by MTT assay; format: functional, cell-based; details: HL-60, 72 h
[19] = test system: NCI-H1975; assay: Antiproliferative activity against human NCI-H1975 cells assessed as inhibition of cell growth after 72 hrs by sulforhodamine B assay; format: functional, cell-based; details: NCI-H1975, 72 h
[20] = test system: HCT-116; assay: Down regulation of survivin expression in human HCT116 cells after 48 hrs by Western blot analysis; format: functional, cell-based
[21] = test system: HCT-116; assay: Down regulation of Raf1 expression in human HCT116 cells after 48 hrs by Western blot analysis; format: functional, cell-based
[22] = test system: Mus musculus; assay: Toxicity in BALB/c nu/nu mouse xenografted with human HCT116 cells assessed as spleen index at 5 mg/kg administered peritoneally once daily for 14 days measured 24 hrs post last dose (reference value: 0.41 +/- 0.08%); format: organism-based; details: in vivo, ip
[23] = test system: HepG2; assay: Antiproliferative activity against human HepG2 cells assessed as inhibition of cell growth after 72 hrs by sulforhodamine B assay; format: functional, cell-based; details: HepG2, 72 h
[24] = test system: HCT-116; assay: Antitumor activity against human HCT116 cells xenografted in BALB/c nu/nu mouse assessed as tumor growth inhibition at 20 mg/kg administered peritoneally once daily for 14 days measured 24 hrs post last dose relative to control; format: functional; details: read-out: TGI
[25] = test system: HCT-116; assay: Antitumor activity against human HCT116 cells xenografted in BALB/c nu/nu mouse assessed as tumor growth inhibition at 10 mg/kg administered peritoneally once daily for 14 days measured 24 hrs post last dose relative to control; format: functional; details: read-out: TGI
[26] = test system: L929; assay: Cytotoxicity against mouse L929 cells assessed as inhibition of cell growth after 72 hrs by MTT assay; format: cell-based; details: L929, 72 h
[27] = test system: PANC-1; assay: Antiproliferative activity against human PANC1 cells assessed as inhibition of cell growth after 72 hrs by sulforhodamine B assay; format: functional, cell-based; details: PANC-1, 72 h
[28] = test system: HCT-116; assay: Down regulation of HSP90 expression in human HCT116 cells after 48 hrs by Western blot analysis; format: functional, cell-based

With `CCCCCC[C@@H](C)C[C@@H](C)/C=C/C(=O)N[C@H]1C[C@@]2(O[C@H]1O)[C@@H]1O[C@@H]1[C@](O)(CC(C)=O)[C@@H]1O[C@@H]12` the IC50 [1] was 4.2 µM, the IC50 [2] was 10.9 µM and the inhibition in vivo at 5 mg/kg [3] was 51.6%. For the same molecule, the Activity [4] was “Dose-dependent effect”, the IC50 [5] was 5.96 µM and the IC50 [6] was 8.7 µM. The IC50 [7] was 8.4 µM, the IC50 [8] was 5.09 µM and the Activity [9] was “Dose-dependent effect”. The IC50 [10] was 4.64 µM, the Activity [11] was “Dose-dependent effect” and the Activity [12] was “Dose-dependent effect”. For the same molecule, the Activity_index [13] was 0.37, the IC50 [14] was 1.91 µM and the Activity_index [15] was 0.48. The IC50 [16] was 17.4 µM, the IC50 [17] was 3.73 µM and the IC50 [18] was 4.55 µM. For the same molecule, the IC50 [19] was 3.75 µM, the Activity [20] was “Dose-dependent effect” and the Activity [21] was “Dose-dependent effect”. For the same molecule, the Activity_index [22] was 0.95, the IC50 [23] was 5.21 µM and the inhibition in vivo at 20 mg/kg [24] was 37.9%. The inhibition in vivo at 10 mg/kg [25] was 37.8%, the IC50 [26] was 3.8 µM and the IC50 [27] was 4.04 µM. The Activity [28] was “Dose-dependent effect”.
